Measurements published in patent US8895605B2, “Pyrrolidine-substituted flavones as radio-sensitizers for use in the treatment of cancer” (Piramal Enterprises Limited, priority 2009, dated 2014).
Read-outs that look alike come from different tables or passages of the source.

Test system: FaDu (human head and neck cancer) cells
Test: In-vitro MTS assay (cytotoxicity, Compound A alone and with radiation)
Assay type: cell-based
Details: for cytotoxicity at 0.7 µM / cytotoxicity at 1 µM / cytotoxicity at 2 µM: FaDu, no radiation; for cytotoxicity at 0.7 µM: 0.7 μM Compound A (IC30) alone; for cytotoxicity at 1 µM: 1 μM Compound A (IC50) alone; for cytotoxicity at 2 µM: 2 μM Compound A (IC70) alone; for Combination index (CI): CompuSyn
Text: The assay has been carried out according to the method described in Molecular Cancer Therapeutics, 2007, 6(9); the disclosure of which is incorporated by reference for the teaching of the assay. MTS (Promega, Cat #G1111) is a tetrazolium compound ((3-(4,5-dimethylthiazol-2-yl)-5-(3-carboxymethoxyphenyl)-2-(4-sulphophenyl)-2H-tetrazolium, inner salt; MTS) for use in colorimetric assays for determining the number of viable cells in proliferation, cytotoxicity or chemosensitivity assays. This is used with an electron coupling reagent PMS (Phenazine methosulfate). MTS is bioreduced by cells into a formazan that is soluble in tissue culture medium. The absorbance of the formazan at 490 nm can be measured directly from 96 well assay plates without additional processing. Dehydrogenase enzymes found in metabolically active cells accomplish the conversion of MTS into the aqueous soluble formazan. The quantity of formazan product as measured at 490 nm absorbance is directly proportional to the number of living cells in culture. Before testing the effect of Compound A on radiosensitivity of FaDu (human head and neck cancer, ATCC, USA) cells, the dose dependent cytotoxicity of Compound A alone was determined using MTS assay. Tumor cells were incubated in the presence of various concentrations of Compound A for 48 h and subjected to MTS assay. […] The Fa-Du (human head and neck cancer, ATCC, USA) cells were seeded at density of 1500 cells/well in 180 μL of MEM (minimum essential medium) in tissue culture grade 96-well plate and allowed to grow for 24 h in humidified 5% CO2 incubator at 37±1° C. Three identical groups of cells were made. After a time interval of 24 h after seeding, different wells of the first and second group of cells were irradiated at room temperature at dose of 2, 4, 6, 8 and 10 Gy respectively. The second group was further treated 24 h after irradiation (i.e. on the third day of the experiment) with IC30 concentration of Compound A. The third group was treated on the third day of the experiment, with IC30 concentration of Compound A alone. In order to obtain IC30 concentration (0.7 μM) of Compound A in any well, 20 μL of a stock solution of concentration 10×IC30, (i.e. 7 μM) was added to the well (dissolved first in DMSO and then in cell medium, final DMSO concentration should not exceed 0.5%) and diluted to 200 μL with MEM. The wells were incubated for 48 h and 96 h respectively, in humidified 5% CO2 incubator at 37±1° C. After completion of 48 h and 96 h respectively, the medium was removed from all wells and fresh MEM was added and the plates were incubated further for additional 4-6 days or for total of 8-10 days from the start of the experiment. At the end of the experiment, the medium was removed from all wells and 20 μL of MTS (2 mg/ml in phosphate buffer saline, pH 6-6.5 and filter sterilized) and 1 μL of PMS (3 mM in PBS, pH 7.3 and filter sterilized) was added per well along with the cell medium to adjust the total volume to 200 μL/well. The plate was incubated for 2-4 h in humidified 5% CO2 incubator at 37±1° C. The plate was read at 490 nm on Spectrophotometer (SpectraMax, Molecular Devices, USA), and the percentage cytotoxicity using SoftMax, software for SpectraMax was calculated. The above experiment was repeated using IC50 and IC70 concentrations of Compound A. The enhancement in radiation effects in FaDu cell line as evaluated using the CompuSyn software by Chou and Talalay, described in Pharmacological Reviews, 2006, 58, 621-681, which is incorporated herewith by reference. Combination index (CI) is used to evaluate if a combination is additive, synergistic or antagonistic. CI<1 is synergistic, CI=1 is additive and CI>1 is antagonistic. For example, at a treatment of 48 h with a concentration of IC70 of Compound A, the combination was synergistic (CI=0.7) at all the doses of radiation. The combination index in both the cases ie. […]

[1] = Compound A alone, 48 h incubation, FaDu cells
[2] = Homo sapiens, 48 h, read-out: % cytotoxicity 48 h after Compound A treatment
[3] = Homo sapiens, 96 h, read-out: % cytotoxicity 96 h after Compound A treatment

`CN1CC[C@@H](c2c(O)cc(O)c3c(=O)cc(-c4ccccc4Cl)oc23)[C@@H]1CO.Cl` [Compound A, (+)-trans-2-(2-Chlorophenyl)-5,7-dihydroxy-8-(2-hydroxymethyl-1-methyl-pyrrolidin-3-yl)-chromen-4-one hydrochloride] was tested, and the “% cytotoxicity 48 h after Compound A treatment” value (from here on “% cytotoxicity 48 h”) (2 Gy radiation, then 0.7 μM Compound A (IC30) 24 h after radiation, 48 h) was 23%, the “% cytotoxicity 96 h after Compound A treatment” value (from here on “% cytotoxicity 96 h”) (2 Gy radiation, then 0.7 μM Compound A (IC30) 24 h after radiation, 96 h) was 15% and the “% cytotoxicity 48 h” value (2 Gy radiation, then 1 μM Compound A (IC50) 24 h after radiation, 48 h) was 35%. For the same molecule, the “% cytotoxicity 48 h” value (2 Gy radiation, then 2 μM Compound A (IC70) 24 h after radiation, 48 h) was 79%, the “% cytotoxicity 96 h” value (2 Gy radiation, then 2 μM Compound A (IC70) 24 h after radiation, 96 h) was 98% and the “% cytotoxicity 48 h” value (4 Gy radiation, then 0.7 μM Compound A (IC30) 24 h after radiation, 48 h) was 35%. The “% cytotoxicity 96 h” value (4 Gy radiation, then 0.7 μM Compound A (IC30) 24 h after radiation, 96 h) was 31%, the “% cytotoxicity 48 h” value (4 Gy radiation, then 1 μM Compound A (IC50) 24 h after radiation, 48 h) was 50% and the “% cytotoxicity 96 h” value (4 Gy radiation, then 1 μM Compound A (IC50) 24 h after radiation, 96 h) was 37%. The “% cytotoxicity 48 h” value (4 Gy radiation, then 2 μM Compound A (IC70) 24 h after radiation, 48 h) was 86%, the “% cytotoxicity 96 h” value (4 Gy radiation, then 2 μM Compound A (IC70) 24 h after radiation, 96 h) was 96% and the “% cytotoxicity 48 h” value (6 Gy radiation, then 0.7 μM Compound A (IC30) 24 h after radiation, 48 h) was 64%. For the same molecule, the “% cytotoxicity 96 h” value (6 Gy radiation, then 0.7 μM Compound A (IC30) 24 h after radiation, 96 h) was 60%, the “% cytotoxicity 48 h” value (6 Gy radiation, then 1 μM Compound A (IC50) 24 h after radiation, 48 h) was 73% and the “% cytotoxicity 96 h” value (6 Gy radiation, then 1 μM Compound A (IC50) 24 h after radiation, 96 h) was 77%. For the same molecule, the “% cytotoxicity 48 h” value (6 Gy radiation, then 2 μM Compound A (IC70) 24 h after radiation, 48 h) was 89%, the “% cytotoxicity 96 h” value (6 Gy radiation, then 2 μM Compound A (IC70) 24 h after radiation, 96 h) was 96% and the “% cytotoxicity 48 h” value (8 Gy radiation, then 0.7 μM Compound A (IC30) 24 h after radiation, 48 h) was 79%. For the same molecule, the “% cytotoxicity 96 h” value (8 Gy radiation, then 0.7 μM Compound A (IC30) 24 h after radiation, 96 h) was 69%, the “% cytotoxicity 48 h” value (8 Gy radiation, then 1 μM Compound A (IC50) 24 h after radiation, 48 h) was 85% and the “% cytotoxicity 96 h” value (8 Gy radiation, then 1 μM Compound A (IC50) 24 h after radiation, 96 h) was 84%. For the same molecule, the “% cytotoxicity 48 h” value (8 Gy radiation, then 2 μM Compound A (IC70) 24 h after radiation, 48 h) was 91%, the “% cytotoxicity 96 h” value (8 Gy radiation, then 2 μM Compound A (IC70) 24 h after radiation, 96 h) was 95% and the “% cytotoxicity 48 h” value (10 Gy radiation, then 0.7 μM Compound A (IC30) 24 h after radiation, 48 h) was 80%. The “% cytotoxicity 96 h” value (10 Gy radiation, then 0.7 μM Compound A (IC30) 24 h after radiation, 96 h) was 85%, the “% cytotoxicity 48 h” value (10 Gy radiation, then 1 μM Compound A (IC50) 24 h after radiation, 48 h) was 86% and the “% cytotoxicity 96 h” value (10 Gy radiation, then 1 μM Compound A (IC50) 24 h after radiation, 96 h) was 90%. The “% cytotoxicity 48 h” value (10 Gy radiation, then 2 μM Compound A (IC70) 24 h after radiation, 48 h) was 91%, the “% cytotoxicity 96 h” value (10 Gy radiation, then 2 μM Compound A (IC70) 24 h after radiation, 96 h) was 94% and the IC30 [1] was 0.7 µM. The IC70 [1] was 2 µM, the cytotoxicity at 0.7 µM [2] was 8% and the cytotoxicity at 0.7 µM [3] was 4%. The cytotoxicity at 1 µM [2] was 20%, the cytotoxicity at 1 µM [3] was 25% and the cytotoxicity at 2 µM [2] was 66%. The cytotoxicity at 2 µM [3] was 83%, the IC50 (Homo sapiens, Compound A alone, 48 h incubation, FaDu cells) was 1000 nM and the “Enhancement in radiation effects (combination class)” value (radiation 6, 8 and 10 Gy followed by Compound A at IC30 for 48 h) was “synergistic (CI<1 is synergistic)”. The “Enhancement in radiation effects (combination class)” value (radiation 6, 8 and 10 Gy followed by Compound A at IC50 for 48 h) was “synergistic (CI<1 is synergistic)”, the “Combination index (CI)” value (radiation + Compound A at IC30, 96 h treatment, all doses of radiation) was 1 and the “Combination index (CI)” value (radiation + Compound A at IC50, 96 h treatment, all doses of radiation) was 1. The “Combination index (CI)” value (radiation + Compound A at IC70, 48 h treatment, all doses of radiation) was 0.7 and the “Combination index (CI)” value (radiation + Compound A at IC70, 96 h treatment, at 2, 4 and 6 Gy) was < 1.
